The text below walks through data of PMC4897788, “Design, biological evaluation and 3D QSAR studies of novel dioxin-containing pyrazoline derivatives with thiourea skeleton as selective HER-2 inhibitors” (Scientific Reports, 2016).

Data set [1] deals with p-EGFR. Description: Western blot p-EGFR in MDA-MB-453. The format is cell-based, human. The following applies: increasing C20 levels. On the procedure:
(§1) After incubation with compound, cells were harvested and washed with PBS, then lysed in lysis buffer (30 mm Tris, pH 7.5, 150 mm NaCl, 1 mm phenylmethylsulfonyl fluoride, 1 mm Na3VO4, 1% Nonidet P-40, 10% glycerol, and phosphatase and protease inhibitors). After centrifugation at 12,000 g for 5 min, the supernatant was collected as total protein. The concentration of the protein was determined by a BCATM protein assay kit (Pierce, Rockford, IL, USA). The protein samples were separated by 10% SDS–PAGE and subsequently electrotransferred onto a polyvinylidene difluoride membrane (Millipore, Bedford, MA, USA). The membrane was blocked with 5% non-fat milk for 2 h at room temperature. The blocked membrane was probed with the indicated primary antibodies overnight at 4 °C, and then incubated with a horse radish peroxidase (HRP)-coupled secondary antibody.

In data set [2] the test system is human erythrocytes. Description: Hemolysis test. Conditions: lytic concentration 30%. In kind it is cell-based. The protocol:
Hemolytic activity was assayed using fresh capillary human blood. Erythrocytes were collected by centrifuging the blood three times in chilled phosphate buffered saline (PBS at 4 °C) at 1000 × g for 10 min. The final pellet was resuspended in PBS to give a 2% w/v solution. Using a microtitre plate, 100 μL of the erythrocyte solution was added to dextran, PLL, stearyl-PLL or stearyl-PLL+ LDL (1–1000/μg/mL) in a volume of […]. Samples were then incubated for 3 h and the microtitre plate was centrifuged then at 1000 × g for 10 min and the supernatants (100 μL) transferred into a new microtitre plate. Hemoglobin release was determined spectrophotometrically using a microtitre plate reader (absorbance at 550 nm). Results were expressed as the amount of released hemoglobin induced by the compounds as a percentage of the total. Hemolysis test was tested according to the guide of biological evaluation of medical device (SFDA, China).

Data set [3] has as its system MDA-MB-453 cell line. Description: Flow cytometry, Annexin V-FITC/PI apoptosis. The format is cell-based, human. Conditions: 0.05, 0.1 and 0.2 μM, 24 h. On the procedure:
MDA-MB-453 cell line was seeded per well in 24-well plates and incubated overnight. Then they were treated with compound C20 at three different concentrations (0.05 μM, 0.1 μM and 0.2 μM, separately). DMSO was chosen as the negative control with a regular dosage of 0.2%. After 24 h, cells were harvested for the apoptosis detection. In brief, collected cells were washed once with PBS and subsequently washed once with binding buffer, and then stained with Annexin V-FITC and propidium iodide (PI) in the binding buffer for 20 min at room temperature in the dark. Apoptotic cells were quantified using a FACScan cytofluorometer (PT. Madagasi Brosa Inc. JI. Batang Hari NO. 73, Propinsi Sumatera Utara, Indonesia) plotting at least 10,000 events per sample. To quantify the data, the frequencies in all quadrants were analyzed using flowjo software. We regarded cells in the lower right quadrant (Annexin V positive/PI negative) as early apoptotic cells, and cells in upper right quadrant (Annexin V positive/PI positive) as late apoptotic cells and necrotic cells.

Data set [4] concerns the target HER-2 (Homo sapiens, UniProt P04626). Kind of data set: HER-2 autophosphorylation kinase assay (DELFIA/time-resolved fluorometry).
Description: Both EGFR and HER-2 kinase assays were set up to assess the level of autophosphorylation based on DELFIA/Time-Resolved Fluorometry. […] Then, 10 μL of 5× buffer (containing 20 mM HEPES, 2 mM MnCl2, 100 μM Na3VO4, and 1 mM DTT) and 20 μL of 0.1 mM ATP-50 mM MgCl2 was added for 1 h. Positive and negative controls were included in each plate by incubation of enzyme with or without ATP-MgCl2. At the end of incubation, liquid was aspirated and plates were washed three times with wash buffer. A 75 μL (400 ng) sample of europium-labeled anti-phosphotyrosine antibody was added to each well for another 1 h of incubation. […] The IC50 was obtained from curves of percentage inhibition with eight concentrations of compound. As the contaminants in the enzyme preparation are fairly low, the majority of the signal detected by the anti-phosphotyrosine antibody is from EGFR or HER-2. The experiment was performed for three independent times and in triplicate each time.
Data set [5] addresses T1, HER-3 (Homo sapiens, UniProt P21860).
T1 construct: HER-3 cytoplasmic domain (HER-3-CD, amino acids 665–1339); His6 (N); made in house
T1 sequence (P21860 665-1339): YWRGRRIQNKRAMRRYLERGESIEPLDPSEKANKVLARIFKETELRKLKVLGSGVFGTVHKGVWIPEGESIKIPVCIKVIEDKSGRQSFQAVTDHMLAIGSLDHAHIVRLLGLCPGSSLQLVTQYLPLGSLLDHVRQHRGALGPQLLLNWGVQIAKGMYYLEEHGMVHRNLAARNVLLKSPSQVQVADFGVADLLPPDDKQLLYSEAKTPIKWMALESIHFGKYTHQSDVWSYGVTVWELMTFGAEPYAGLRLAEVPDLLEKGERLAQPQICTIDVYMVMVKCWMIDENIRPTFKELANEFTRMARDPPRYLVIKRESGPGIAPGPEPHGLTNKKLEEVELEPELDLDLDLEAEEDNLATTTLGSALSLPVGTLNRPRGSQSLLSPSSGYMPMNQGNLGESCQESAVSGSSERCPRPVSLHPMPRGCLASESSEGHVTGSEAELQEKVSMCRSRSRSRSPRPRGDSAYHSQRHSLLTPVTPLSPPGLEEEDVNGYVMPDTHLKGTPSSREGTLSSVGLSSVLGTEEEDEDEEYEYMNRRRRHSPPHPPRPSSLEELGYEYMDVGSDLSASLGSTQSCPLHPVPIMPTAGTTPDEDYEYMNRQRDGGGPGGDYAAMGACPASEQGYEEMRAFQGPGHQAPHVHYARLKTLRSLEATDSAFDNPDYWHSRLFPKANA
Description: HER-3 inhibitory assay. In kind it is biochemical. On the procedure: A sequence that encodes (His)6 was located at the 5′ upstream to the HER-2 and EGFR sequences. Sf-9 cells were infected for 3 days for protein expression. Sf-9 cell pellets were solubilized at 0 °C in a buffer at pH 7.4 containing 50 mM HEPES, 10 mM NaCl, 1% Triton, 10 μM ammonium molybdate, 100 μM sodium vanadate, 10 μg/mL aprotinin, 10 μg/mL leupeptin, 10 μg/mL pepstatin, and 16 μg/mL benzamidine, HCl for 20 min followed by 20 min centrifugation. Crude extract supernatant was passed through an equilibrated Ni–NTA superflow packed column and washed with 10 mM and then 100 mM imidazole to remove nonspecifically bound material. Histidine-tagged proteins were eluted with 250 and 500 mM imidazole and dialyzed against 50 mM NaCl, 20 mM HEPES, 10% glycerol and 1 μg/mL each of aprotinin, leupeptin, and pepstatin for 2 h. The entire purification procedure was performed at 4 °C or on ice.
A 1.8 Kb cDNA encoded for human HER-3 cytoplasmic domain (HER-3-CD, amino acids 665–1339) was applied to perform the experiment using the same method as EGFR/HER-2.

Data set [6] addresses HER-2 protein (truncated) (Homo sapiens, UniProt P04626). Description: BLI assay (bio-layer interferometry). The following applies: labeled compound, calculated by the Octet Red96 system. The format is binding. The protocol:
Bio-layer interferometry (BLI). Binding of compounds (labeled; 0.01, 0.05, 0.1, 0.5 μM) to the HER-2 protein (truncated) was measured and analyzed on an Octet Red96 instrument (ForteBio) at room temperature. The buffer-equilibrated streptavidin biosensors were loaded with 100 μg/mL protein. A duplicate set of sensors was incubated in the buffer without protein for a background binding control. The assay was performed in black 96-well plates (Thermo Fisher Scientific) with the total working volume of 0.21 mL per well. The signal was analyzed using a double reference subtraction protocol to subtract the non-specific binding, background, and signal drift caused by sensor variability. The binding event was quantified by the shift of interference pattern of the light. The result was shown in Fig. 7 and the KD was calculated by the Octet Red96 instrument.

The subject of data set [7] is Caspase3. Description: Western blot Caspase3 in MDA-MB-453. The format is cell-based, human. Conditions: increasing C20 levels. On the procedure: as §1

Chain of HER-2 protein (truncated) (P04626 676-1245): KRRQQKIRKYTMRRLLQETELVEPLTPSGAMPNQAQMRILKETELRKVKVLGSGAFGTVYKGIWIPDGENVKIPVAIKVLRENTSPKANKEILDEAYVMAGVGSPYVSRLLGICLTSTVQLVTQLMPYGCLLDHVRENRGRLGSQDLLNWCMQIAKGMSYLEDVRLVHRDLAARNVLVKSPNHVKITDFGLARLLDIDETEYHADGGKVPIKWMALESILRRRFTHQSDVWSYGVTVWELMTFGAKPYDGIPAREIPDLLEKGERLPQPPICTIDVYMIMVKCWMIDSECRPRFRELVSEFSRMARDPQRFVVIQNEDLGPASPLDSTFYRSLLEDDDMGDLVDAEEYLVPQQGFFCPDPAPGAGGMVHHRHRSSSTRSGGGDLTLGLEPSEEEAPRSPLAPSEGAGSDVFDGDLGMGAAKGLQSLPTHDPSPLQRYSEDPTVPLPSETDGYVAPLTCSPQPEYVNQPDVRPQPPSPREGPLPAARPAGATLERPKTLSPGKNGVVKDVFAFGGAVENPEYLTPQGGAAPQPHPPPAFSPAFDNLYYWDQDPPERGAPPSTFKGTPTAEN
Chain of HER-2 (P04626 676-1245): as above

Consider `COc1ccc(C2CC(c3ccc4c(c3)OCCO4)=NN2C(N)=S)cc1OC` (stereo not shown) [Compound C20, 3-(2,3-dihydrobenzo[b][1,4]dioxin-6-yl)-5-(3,4-dimethoxyphenyl)-4,5-dihydro-1H-pyrazole-1-carbothioamide], for which the p-EGFR levels entry in data set [1] was “unconspicuous”. Moreover, the “Hemolysis LC30” value in data set [2] is more than 10000 µg/mL. Also, the induction of apoptosis result in data set [3] is given as “induce apoptosis of activated MDA-MB-453 cell line in a dose-dependent manner”. Besides, the IC50 came out at 30 ± 2 nM in data set [4] and 5200 ± 460 nM in data set [5]. Moreover, the Kd in data set [6] is 187 nM. Also, the Caspase3 levels result in data set [7] is listed as “corresponding increase”.
